Experimental data as given in BindingDB's records for doi:10.1021/jm00396a028 (Merck Sharp & Dohme Research Laboratories, 1988).
pIC50: −log10 of the molar value.

Assay: Displacement of [125I]gastrin from guinea pig gastric glands

Row | SMILES | pIC50
1 | Cc1nnc2n1-c1ccc(Cl)cc1C(c1ccccc1)=NC2 | < 4.00
2 | Cc1nnc2n1-c1ccccc1C(c1ccccc1)=NC2NC(=O)Nc1ccc(Cl)cc1 (stereo not drawn) [1-(4-Chloro-phenyl)-3-(1-methyl-6-phenyl-4H-2,3,5,10b-tetraaza-benzo[e]azulen-4-yl)-urea] | 6.42
3 | O=C(Nc1ccc(Cl)cc1)NC1N=C(c2ccccc2)c2ccccc2-n2cnnc21 (stereo not drawn) [1-(4-Chloro-phenyl)-3-(6-phenyl-4H-2,3,5,10b-tetraaza-benzo[e]azulen-4-yl)-urea] | 6.42
4 | Cc1nnc2n1-c1ccccc1C(c1ccccc1F)=NC2NC(=O)c1cc2ccccc2[nH]1 (stereo not drawn) [1H-Indole-2-carboxylic acid [6-(2-fluoro-phenyl)-1-methyl-4H-2,3,5,10b-tetraaza-benzo[e]azulen-4-yl]-amide(0.2EtOAc)] | 8.15
5 | O=C(NC1N=C(c2ccccc2F)c2ccccc2-n2cnnc21)c1cc2ccccc2[nH]1 (stereo not drawn) [1H-Indole-2-carboxylic acid [6-(2-fluoro-phenyl)-4H-2,3,5,10b-tetraaza-benzo[e]azulen-4-yl]-amide(0.1EtOAc)] | 7.19
6 | O=C(NC1N=C(c2ccccc2F)c2ccccc2-n2cnnc21)c1ccc(Cl)cc1 (stereo not drawn) [4-Chloro-N-[6-(2-fluoro-phenyl)-4H-2,3,5,10b-tetraaza-benzo[e]azulen-4-yl]-benzamide] | 5.62
7 | Fc1ccccc1C1=N[C@H](Cc2c[nH]c3ccccc23)c2nnc(-c3ccccc3)n2-c2ccccc21 [6-(2-Fluoro-phenyl)-4-(1H-indol-3-ylmethyl)-1-phenyl-4H-2,3,5,10b-tetraaza-benzo[e]azulene(0.55CHCl3)] | < 4.00
8 | Fc1ccccc1C1=N[C@H](Cc2c[nH]c3ccccc23)c2nnc(C(Cl)(Cl)Cl)n2-c2ccccc21 [6-(2-Fluoro-phenyl)-4-(1H-indol-3-ylmethyl)-1-trichloromethyl-4H-2,3,5,10b-tetraaza-benzo[e]azulene(0.5CHCl3)] | < 4.00
9 | Fc1ccccc1C1=N[C@H](Cc2c[nH]c3ccccc23)c2nncn2-c2ccccc21 [6-(2-Fluoro-phenyl)-4-(1H-indol-3-ylmethyl)-4H-2,3,5,10b-tetraaza-benzo[e]azulene(0.5CHCl3)] | 4.60
10 | O=C(NC1N=C(c2ccccc2)c2ccccc2-n2cnnc21)OCc1ccccc1 (stereo not drawn) [(6-Phenyl-4H-2,3,5,10b-tetraaza-benzo[e]azulen-4-yl)-carbamic acid benzyl ester(0.25EtOAc)] | 5.32
11 | Cc1nnc2n1-c1ccc(Cl)cc1C(c1ccccc1Cl)=NC2 [Halcion] | < 4.00
12 | CN(C)Cc1nnc2n1-c1ccccc1C(c1ccccc1F)=N[C@@H]2Cc1c[nH]c2ccccc12 [[6-(2-Fluoro-phenyl)-4-(1H-indol-3-ylmethyl)-4H-2,3,5,10b-tetraaza-benzo[e]azulen-1-ylmethyl]-dimethyl-amine(0.22CHCl3)] | 4.22
13 | O=C(NC1N=C(c2ccccc2F)c2ccccc2-n2cnnc21)OCc1ccccc1 (stereo not drawn) [[6-(2-Fluoro-phenyl)-4H-2,3,5,10b-tetraaza-benzo[e]azulen-4-yl]-carbamic acid benzyl ester] | 5.52
